Reference: US8269010B2, “3-amino-pyridine derivatives for the treatment of metabolic disorders” (Piramal Healthcare Limited, priority 2006, dated 2012)
Several values for one entry are separate records, joined by “and”; a condition that tells them apart may be missing. Identical values can stand only once.

Experiments:
[1] = test system: insulin resistant adipocytes (3T3 L1); assay: In vitro model exhibiting insulin resistance (IR assay): 14C-2-deoxyglucose uptake; type: cell-based; conditions: glucose uptake; for fold induction at 10 µM: Mus musculus, dexamethasone-induced insulin resistant 3T3 L1 adipocytes, test compound 10 μM/mL, vehicle = 1.0, cut off 1.50 fold, read-out: Fold activity (fold activity over vehicle); for % of Rosiglitazone (comparison with Rosiglitazone): insulin resistant 3T3 L1 adipocytes, test compound 10 μM vs Rosiglitazone 0.1 μM
Procedure: The assay was designed as in the reference, British Journal of Pharmacology, 130, 351-58, 2000, the disclosure of which is incorporated by reference for the teaching of the assay. The solution of test compound (10 μM/mL) was prepared in DMSO. […] Differentiation into adipocytes was induced by the known methods as described below. (See, also, J. Biol. […] 3T3 L1 fibroblasts were seeded in 24- or 6-well plates at a density of 0.5−2×10^4 cells/well and were allowed to reach maximal confluency. The confluent fibroblasts were exposed to culture medium for 2 days. […] The mature adipocytes were exposed to dexamethasone, 100 nM added in ethanol, in culture medium and incubated for 2 days. […] The test compound was also present during this period. After 3-4 hours, the medium was aspirated and replaced with Kreb's Ringer phosphate (KRP) buffer at pH 7.4 and with human/porcine insulin, 200 nM. The cells were incubated for 30 minutes at 37° C. […] After exactly 5 minutes, the plates were transferred to ice trays and medium was rapidly aspirated. The cell layer was washed twice with ice-cold phosphate buffered saline, (PBS), pH 7.4. […] Non-specific glucose uptake was assayed in wells exposed to cytochalasin B, inhibitor of glucose transport. […] Statistical analysis was performed using unpaired t-test.

Human PPARγ = biological target: T1, Human PPARγ (Homo sapiens, UniProt P37231); assay: Human PPARγ transactivation assay (luciferase reporter, HEK293 cells); type: cell-based; conditions: 48 hours
T1 construct: Human full length PPARγ cDNA was cloned into pSG5 expression vector; expressed in transfected cells; host or cells: HEK293 cells
T1 sequence (P37231 1-505): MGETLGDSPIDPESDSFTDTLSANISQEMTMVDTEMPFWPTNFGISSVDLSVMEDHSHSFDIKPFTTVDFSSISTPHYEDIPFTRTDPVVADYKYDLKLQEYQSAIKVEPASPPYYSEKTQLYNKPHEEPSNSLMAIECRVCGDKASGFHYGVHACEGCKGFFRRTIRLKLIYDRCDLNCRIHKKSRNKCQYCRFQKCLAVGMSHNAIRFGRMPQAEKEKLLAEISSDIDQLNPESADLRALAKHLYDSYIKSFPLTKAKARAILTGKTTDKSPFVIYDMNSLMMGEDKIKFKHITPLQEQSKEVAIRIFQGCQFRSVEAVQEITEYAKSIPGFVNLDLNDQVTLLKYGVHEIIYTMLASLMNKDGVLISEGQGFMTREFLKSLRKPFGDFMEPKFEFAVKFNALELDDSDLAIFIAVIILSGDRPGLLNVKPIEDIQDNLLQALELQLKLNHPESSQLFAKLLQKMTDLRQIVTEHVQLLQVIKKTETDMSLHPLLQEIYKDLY
Procedure: The assay was designed as in the reference, Biochem. Biophys. Res. Comm. 175:865-871, 1991, the disclosure of which is incorporated by reference for the teaching of the assay. Human PPARγ activity was evaluated by transactivation using a luciferase reporter gene. The pBL-TK-luciferase reporter plasmid AOX-3×PPRE-TK-LUC contains three copies of the rat acyl CoA oxidase PPRE cloned upstream of the minimal herpes simplex virus thymidine kinase (TK) promoter. Human full length PPARγ cDNA was cloned into pSG5 expression vector (Stratagene, Lo Jolla, Calif.).
HEK293 cells were seeded in 24 well plates and grown in DMEM supplemented with 10% (v/v) FCS. After 24 hours, they were transfected with 100 ng of hPPARγ receptor and 300 ng of AOX-3×PPRE-LUC reporter construct per well using Fugen 6 transfection reagent (Roche, Indianapolis, Ind.). […] The control was 0.1% DMSO. After 48 hours, transactivation activity was determined by luciferase assay using Steady Glow reagent (Promega, Madison, Wis.).

Mouse PPARγ = biological target: T2, Mouse PPARγ (Mus musculus, UniProt P37238); assay: Mouse PPARγ assay (TransAM PPARγ ELISA, 3T3-L1 fibroblasts); type: cell-based; conditions: test compound 50 μM, 72 hrs
T2 construct: endogenous in cells; host or cells: 3T3-L1 fibroblasts
T2 sequence (P37238 1-505): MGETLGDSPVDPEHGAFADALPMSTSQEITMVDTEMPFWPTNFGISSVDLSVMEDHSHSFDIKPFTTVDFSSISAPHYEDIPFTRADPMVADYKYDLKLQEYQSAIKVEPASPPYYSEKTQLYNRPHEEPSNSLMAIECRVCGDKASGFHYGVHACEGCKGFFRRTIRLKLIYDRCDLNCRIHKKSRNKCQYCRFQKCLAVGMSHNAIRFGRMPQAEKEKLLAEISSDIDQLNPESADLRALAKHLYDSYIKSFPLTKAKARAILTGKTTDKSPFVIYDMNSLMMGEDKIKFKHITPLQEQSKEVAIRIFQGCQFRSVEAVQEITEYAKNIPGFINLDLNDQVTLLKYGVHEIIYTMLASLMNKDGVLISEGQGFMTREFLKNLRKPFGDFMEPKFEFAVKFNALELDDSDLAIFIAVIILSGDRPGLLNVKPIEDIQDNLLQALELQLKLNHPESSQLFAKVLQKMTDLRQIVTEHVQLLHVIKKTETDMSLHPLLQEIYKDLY
Procedure: The assay was designed as in the reference, Blood, 104(5), 1361-8, 2004, the disclosure of which is incorporated by reference for the teaching of the assay.
3T3-L1 fibroblasts were seeded in 6-well plates at a density of 4×10^4 cells/well and cultured in DMEM containing 10% calf serum. After 4-5 days, when the cells become confluent, each of test compound was added (from a 20 mM stock in DMSO) to the final concentration of 50 μM in DMEM supplemented with 10% FCS. […] The plates were incubated for 72 hrs at 37° C. in a CO2 incubator with fresh medium containing test substances added after first 48 hrs. After 72 hrs, the medium was removed; the cell layer was washed and processed for the PPARγ assay as per the instruction of the manufacturer (Active Motif, North America, California, USA). PPARγ activation was determined using 96-well ELISA assay as per the instruction manual (TransAM PPARγ. Active Motif, Cat 0.40196). Assay Readout was absorbance output from spectrophotometer for the mouse PPARγ assay. Luminescence data output was recorded for the human PPARγ assay.

[2] = test system: genetically diabetic db/db BL/6J mice; assay: Screening in db/db BL/6J mice: reduction of plasma glucose levels; type: in vivo; conditions: 10 days
Procedure: The protocol was designed as in references. • 1.
The screening of compounds was based on their ability to reduce the plasma glucose levels in genetically diabetic db/db BL/6J mice.
Male db/db mice (obtained from the Animal House of Nicholas Piramal Research Centre, Goregaon, Mumbai, India) were used for this study (body weight in the range of 30-40 g and age is 6-8 weeks) and were kept eight per cage in individually ventilated cages at controlled temperature (22±1° C.) and humidity (45±5%). Food and water were provided ad libitum during their laboratory stay, except for four hours fasting prior to blood sample collection. 12 hours light and dark cycle was followed during the whole study period.
After 4 hours fasting blood samples were collected from mice. Mice showing plasma glucose levels between 300 to 500 mg/dl were divided in groups (8-10 per group) such that the mean plasma glucose levels and variation within the group, for each group, is nearly same. After grouping, mice in respective groups received treatment with 0.5% CMC vehicle, standard compound or test compounds for 10 days.
After 4 hours fasting, mice were anaesthetized using isoflurane (inhalation anesthetic), and blood samples were collected through the retro orbital plexus. Collected blood samples were centrifuged at 7000 rpm for 10 minutes at 4° C.; Separated plasma was used for estimation of plasma glucose using diagnostic kits (Diasys, Germany). Plasma glucose levels of treated groups were normalized with control group using the following formula, which accounted for the changes in control group.
Formula used for normalization was *:{1−[…]}×100.

db/db mice = assay: Evaluation of lipid levels (dyslipidemia) in db/db mice; type: in vivo; conditions: oral bid 15 days
Procedure: The assay was designed as in the reference, Metabolism, 49 (1), 22-31, 2000, the disclosure of which is incorporated by reference for the teaching of the assay. Seven groups of male db/db mice (8 animals per group) were used. […] Body weight was measured daily. On day 15, the animals were deprived of food for 4 hours after the last dose administration. Blood was collected at the end of the 4-hour period using heparinised capillaries by a retro-orbital puncture. Plasma samples were analyzed for glucose, triglyceride, cholesterol, using the autoanalyser.

SMILES	fold induction at 10 µM [1]	% of Rosiglitazone (comparison with Rosiglitazone) [1] [%]	PPARγ activity (% of rosiglitazone) (Human PPARγ) [%]	PPARγ activity (% of rosiglitazone) (Mouse PPARγ) [%]	Normalization with control (plasma glucose) ([2]; 150 mpk od)	lowering lipid levels compared with Rosiglitazone (db/db mice)	reduction in cholesterol levels (db/db mice; doses higher than 50 mpk) [%]	melting point [°C]	Normalization with control (plasma glucose) ([2]; 100 mpk bid)	Normalization with control (plasma glucose) ([2]; Rosiglitazone 5 mpk bid)	Normalization with control (plasma glucose) ([2]; Rosiglitazone 10 mpk od)	decrease in plasma triglyceride levels (db/db mice; Rosiglitazone 5 mpk) [%]	reduction in cholesterol levels (db/db mice; Rosiglitazone 5 mpk) [%]
O=S(=O)(Nc1cnc(Oc2cc3ccccc3cn2)c(Cl)c1)c1ccc(Cl)cc1Cl [Example 1, 2,4-Dichloro-N-(5-chloro-6-(isoquinolin-3-yloxy)pyridin-3-yl)benzenesulfonamide]	2.41 ± 0.06	78.75 ± 3.55	23	12.4	43.2 ± 15.7	as efficacious as Rosiglitazone	26	203 to 205	–	–	–	–	–
COc1ccc(S(=O)(=O)Nc2cnc(Oc3cnc4ccccc4c3)c(Cl)c2)cc1 [Example 26, N-(5-Chloro-6-(quinolin-3-yloxy)pyridin-3-yl)-4-methoxybenzenesulfonamide]	2.19 ± 0.09	66.48 ± 5.26	19.3	–	–	–	–	–	41.90 ± 3.84	–	–	–	–
CN(CCOc1ccc(CC2SC(=O)NC2=O)cc1)c1ccccn1 (stereo not shown) [Rosiglitazone, reference compound]	–	–	–	–	–	–	–	–	–	54.52 ± 4.92 and 107.9 ± 15.1 and 83.6 ± 12.8	93.8 ± 22.7 and 55.0 ± 11.4	40	27
